Like-named read-outs stand apart in the source and are kept apart here.
Tests used:
[1] = system: amine transaminases AfATA, GzATA, NfATA, AoATA, AtATA, MvATA, SpATA; format: biochemical
[2] = donor amine salt
[3] = Stability of salt solutions observed in the screening; format: physicochemical; conditions: certain salt solutions; strong discoloration
Excerpt: The results of table 3 show clearly that certain acids allow significant differences in solubility between investigated salts. In this screening especially differences between product amines and the commonly used donor amines isopropylamine/alanine were targeted. Based on this consideration the following acids appear most applicable: 34CA, 34NA, 43CNA and 3DPPA. In addition, 2DPPA was identified as suitable acid. Acids with less strong differences are PCPA, 24CNA, 25CNA, 35DNOT, 3NA and 435CNBA, which might be useful for other product amines.

## O=C(O)CC(c1ccccc1)c1ccccc1 [Compound 3DPPA, 3,3-diphenylpropionic acid]
[1]
  inhibition of amine transaminases: does not significantly inhibit

## CC(C)N.O=C(O)c1ccc(Cl)c([N+](=O)[O-])c1 [Compound 5, isopropylamine salt of 4-chloro-3-nitrobenzoic acid (43CNA)]
[2]
  solubility: 993

## O=C(O)c1ccc(Cl)c([N+](=O)[O-])c1 [Compound 43CNA, 4-chloro-3-nitro-benzoic acid]
[1]; pH 7.5
  inhibition of amine transaminases: strongly inhibited

## O=C(O)C(c1ccccc1)c1ccccc1 [DPAA, diphenylacetic acid]
[1]; pH 7.5
  inhibition of amine transaminases: strongly inhibited

## O=C(O)C1(c2ccccc2)CCCC1 [PCPA, 1-Phenylcyclo-pentane-carboxylic acid]
[3]
  stability of salt solutions: unknown decomposition reaction

From patent US12018303B2, “Method for preparing amines from carbonyl compounds by transaminase reaction under salt precipitation” (ENZYMICALS AG, priority 2017, dated 2024)
